Laboratory results taken from US20260070921A1, “COMPOUND, ENDOPLASMIC RETICULUM STRESS INHIBITOR, PHARMACEUTICAL PRODUCT, OPHTHALMIC AGENT, EYE DROPS, COMPOSITION, AND METHOD FOR PRODUCING COMPOUND” (KYOTO UNIVERSITY, priority 2022, published 2026).

Experiments:
denatured BSA-flu = denatured BSA-flu (Bos taurus, UniProt P02769); assay: Co-assembly with fluorescently labeled BSA (BSA-flu), confocal imaging; assay type: binding; details: 25° C. 19 h, excess unlabeled BSA 2.0 mg/mL
Description: To prepare denatured BSA-flu, a solution of BSA-flu (1.1 mg/mL) in PBS (pH of 7.4) was incubated at 80° C. for 1 hour. Native or denatured BSA-fluorescein (final concentration: 0.1 mg/mL) was added to a solution of compound 1 (100 μM) or compound 6 (25 μM) in PBS (pH of 7.4) containing 2.0 mg/mL BSA. The mixture was incubated at 25° C. for 19 hours and then images were taken with a CV1000 confocal microscope. The fluorescence intensity of the co-assemblies was quantified from the images obtained using ImageJ software.

luciferase = assay: Luciferase-based refolding assay in live cells; assay type: cell-based; details: compound 1 100 μM, compound 6 25 μM, 20 h
Description: HEK293 cells were seeded in 96-well plates (2×10^4 cells/well) and transfected with a luciferase expression plasmid (0.1 μg/well) using FuGENE HD (Promega). […] Refolding assay was performed as described in Walther, T. V.; Maddalo, D. Intracellular Refolding Assay. J Vis Exp 2012, No. 59. https://doi.org/10.3791/3540. Briefly speaking, luciferase was denatured in live cells by incubation at 45° C. for 30 minutes in the presence of 200 mM MOPS and 20 μg/mL cycloheximide. After the denaturation step, the cells were incubated at 37° C. for various times to allow the luciferase to refold. After cells were lysed with Reporter Lysis 5× Buffer (Promega), luciferase activity was measured.

iFECD = assay: TGF-β2-induced cell damage in iFECD (phase-contrast microscopy); assay type: cell-based, human; details: pretreatment 24 h, TGF-β2 10 ng/ml; compound 1 1-100 μM, compound 6 10 nM-1 μM
Description: The medium was removed from the culture dish, in which iFECD was being cultured, and 1×PBS(−) that had been pre-warmed to 37° C. was added to wash the cells. This procedure was performed twice. Again, 1×PBS(−) was added, and the cells were incubated at 37° C. (5% CO2) for 3 minutes. After the PBS(−) was removed, 0.05% Trypsin-EDTA (Nacalai Tesque, 32778-34) was added, and the cells were incubated at 37° C. ([…]) for 5 minutes. Thereafter, the cells were suspended in a medium and centrifuged at 1500 rpm for 3 minutes to recover the cells. The medium used was DMEM (Nacalai Tesque, 08456-36)+10% FBS (Biowest, S1820-500)+1% P/S (Nacalai Tesque, 26252-94).
iFECD cells were seeded in a 12-well plate at a density of 0.5×10^5 cells per well and cultured at 37° C.
The same method as described in the Materials and Methods section in Example 11-1 was used, except that compound 6 was used instead of compound 1, and the amount of iFECD seeded in a 12-well plate was changed from 0.5×10^5 cells per well to 0.9×10^5 cells per well.

caspase 3 = assay: Western blotting of TGF-β2-induced caspase activation in iFECD; assay type: cell-based, human; details: TGF-β2 stimulated iFECD
Description: In order to collect floating cells and dead cells, the medium was collected on ice, and the solution resulting from washing cells with 1×PBS(−) twice was also collected and centrifuged at 4° C. at 800 g for 12 minutes, followed by discarding the supernatant, thereby obtaining a precipitate. Proteins were extracted from the washed cells by adding a protein extraction buffer (RIPA; 50 mM Tris-HCl (pH of 7.4), 150 mM NaCl, 1 mM EDTA, 0.1% SDS, 0.5% DOC, 1% NP-40) on ice. Thereafter, the precipitate obtained after centrifugation of the floating cells and dead cells was suspended together and extracted. The collected liquid was pulverized in cold water for 30 seconds three times with an ultrasonic device (BIORUPTOR, Tosho Denki) and then centrifuged at 4° C. at 15000 rpm for 10 minutes to collect the protein supernatant.
5 to 8 μg of the extracted proteins were separated by SDS-PAGE and transferred to a nitrocellulose membrane. The primary antibodies used were rabbit anti-Caspase 3 antibody (Cell Signaling, 9662), rabbit anti-PARP antibody (Cell Signaling, 9542), and mouse anti-GAPDH antibody (MBL, M171-3). […] The intensity of the detected bands was analyzed using a LAS-4000mini lumino image analyzer (Fujifilm) and ImageQuant™ software (GE Healthcare).

fibronectin = assay: Western blotting of TGF-β2-induced fibronectin production in iFECD; assay type: cell-based, human; details: TGF-β2 stimulated iFECD
Description: 5 μg of the extracted proteins were separated by SDS-PAGE and transferred to a nitrocellulose membrane. The primary antibodies used were mouse anti-fibronectin antibody (BD Bioscience, 610077) and mouse anti-GAPDH antibody (MBL, M171-3). The secondary antibodies used were peroxidase-labeled anti-rabbit antibody and anti-mouse antibody (GE Healthcare Biosciences, NA931V, NA934V). The primary antibodies were diluted as follows: mouse anti-fibronectin antibody, 15,000-fold; and mouse anti-GAPDH antibody, 5,000-fold. The secondary antibodies were diluted 5,000-fold. For detection, Chemi Lumi ONE Ultra (Nacalai Tesque, 11644-40) was used. The intensity of the detected bands was analyzed using a LAS-4000mini lumino image analyzer (Fujifilm) and ImageQuant™ software (GE Healthcare).

Sequence of denatured BSA-flu (P02769 25-607): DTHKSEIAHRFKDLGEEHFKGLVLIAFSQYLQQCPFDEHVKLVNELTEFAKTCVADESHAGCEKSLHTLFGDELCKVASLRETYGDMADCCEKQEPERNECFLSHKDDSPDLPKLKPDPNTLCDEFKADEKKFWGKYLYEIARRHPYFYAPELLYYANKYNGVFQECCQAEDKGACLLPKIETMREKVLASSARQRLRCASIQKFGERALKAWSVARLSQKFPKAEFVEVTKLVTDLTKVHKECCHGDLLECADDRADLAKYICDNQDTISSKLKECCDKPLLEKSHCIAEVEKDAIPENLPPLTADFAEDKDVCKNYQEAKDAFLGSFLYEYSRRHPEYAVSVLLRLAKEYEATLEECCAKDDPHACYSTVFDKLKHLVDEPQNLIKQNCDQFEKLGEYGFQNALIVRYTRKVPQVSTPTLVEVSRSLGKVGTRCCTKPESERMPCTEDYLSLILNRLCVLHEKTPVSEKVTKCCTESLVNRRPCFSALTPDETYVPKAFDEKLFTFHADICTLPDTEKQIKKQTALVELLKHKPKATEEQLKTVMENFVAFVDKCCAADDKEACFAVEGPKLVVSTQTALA

SMILES	Co-assembly with native or denatured BSA-flu (denatured BSA-flu)	Refolding of luciferase (luciferase)	Cell damage induced by recombinant human TGF-β2 (iFECD)	Cleaved active caspase 3 (about 17 kDa) (caspase 3)	Fibronectin production (fibronectin)
COc1ccc2c(c1)sc1c(=O)nc3nc(Nc4ccc(S(N)(=O)=O)cc4)ccn3c12 [compound 6]	selectively formed co-assemblies with heat-denatured BSA	slightly inhibited refolding	limited damage to corneal endothelial cells	hardly detected	almost no production of fibronectin was observed
NS(=O)(=O)c1ccc(Nc2ccn3c(n2)nc(=O)c2sc4cc(F)ccc4c23)cc1 [compound 1]	selectively formed co-assemblies with heat-denatured BSA	slightly inhibited refolding	limited damage to corneal endothelial cells	hardly detected	almost no production of fibronectin was observed
